According to patent publication US10316038B2, “Pyrrolopyrimidine ITK inhibitors for treating inflammation and cancer” (ACLARIS THERAPEUTICS, INC., priority 2017, dated 2019):
Where two headings read alike, the source gives them in different places.

Assays:
ITK = molecular target: T1, ITK (Homo sapiens, UniProt Q08881); assay: ITK inhibitor binding potency (LanthaScreen competitive binding assay); details: TR-FRET competitive binding, 10 nM ITK, 50 nM kinase tracer-236; pre-incubation condition not given; read-out: ITK Inhibition IC50
T1 sequence (Q08881 1-620): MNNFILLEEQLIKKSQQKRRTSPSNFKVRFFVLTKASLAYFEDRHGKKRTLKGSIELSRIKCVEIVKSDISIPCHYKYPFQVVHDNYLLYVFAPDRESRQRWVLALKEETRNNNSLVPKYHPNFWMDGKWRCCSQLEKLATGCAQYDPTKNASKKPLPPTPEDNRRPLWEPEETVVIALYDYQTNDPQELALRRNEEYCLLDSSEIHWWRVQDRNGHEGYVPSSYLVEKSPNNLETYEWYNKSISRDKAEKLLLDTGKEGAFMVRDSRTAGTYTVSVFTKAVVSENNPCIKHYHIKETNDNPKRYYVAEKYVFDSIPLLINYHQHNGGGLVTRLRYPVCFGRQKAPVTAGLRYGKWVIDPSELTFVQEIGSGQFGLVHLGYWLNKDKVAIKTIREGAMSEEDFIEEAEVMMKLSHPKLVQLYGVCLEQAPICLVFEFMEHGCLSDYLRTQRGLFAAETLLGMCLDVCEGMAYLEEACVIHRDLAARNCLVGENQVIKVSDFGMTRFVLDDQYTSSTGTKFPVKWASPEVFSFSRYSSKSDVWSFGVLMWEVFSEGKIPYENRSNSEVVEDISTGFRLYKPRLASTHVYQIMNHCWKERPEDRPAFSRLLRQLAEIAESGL
Text: The ability of candidate compounds to interact with ITK is quantitated by a competitive binding assay using the LanthaScreen technology developed by Life Technologies. This assay is based on the binding of a proprietary, Alexa Fluor™ 647-labeled, ATP-competitive kinase inhibitor (kinase tracer-236) to the ITK expression construct in the presence of a Europium-conjugated antibody, resulting in a FRET (fluorescence resonance energy transfer) signal. Displacement of the kinase tracer by compound results in a lower emission ratio upon excitation of the Europium chelate. Candidate compounds are designed as potential irreversible inhibitors of ITK, capable of ligating to an active site cysteine residue resulting in time dependent covalent binding. The time dependent nature of irreversible inhibition is investigated by performing the binding assay with and without a pre-incubation of compound and ITK. […] The inhibitory potency of candidate compounds is measured in 20 mM HEPES pH 7.5, 10 mM MgCl2, 0.01% BSA, 0.0005% Tween-20, and 2% DMSO in the presence of 10 nM ITK, 2 nM Eu-anti-GST antibody, and 50 nM kinase tracer-236 using a 384-well plate format. Background signal is defined in the absence of ITK and uninhibited signal is defined in the presence of vehicle (2% DMSO) alone. Compounds were evaluated in an 11 point dose-response ranging from 20 uM to 0.34 nM. The binding assays are performed under two preincubation conditions to evaluate time dependence of inhibition. For the pre-incubation assay, ITK and Eu-anti-GST antibody are pre-incubated with compound or vehicle for two hours prior to the addition of kinase tracer. The non-preincubated assay is run under conditions where ITK and Eu-anti-GST antibody are added to a mixture of compound and kinase tracer. IC50 values of compounds are determined using a 4 parameter logistical fit of emission ratio as a function of the concentration of compound.

[1] = tested on: ITK phosphorylation of its substrate, PLCγ1, at Y783; assay: ITK target modulation assay (phospho-Y783 PLCγ1 immunoblot in Jurkat T cells); format: cell-based; details: 2 hours compound, CD3/CD28 Dynabeads stimulation 100 sec, anti-phospho-Y783 PLCγ1 immunoblot, read-out: PLC-γ Inhibition IC50
Procedure: Target modulation was based upon the ability of a compound to inhibit ITK phosphorylation of its substrate, PLCγ1, at […]. Human Jurkat T cells were placed in snap-cap polypropylene tubes at 4 million per tube in 800 μL medium (RPMI1640 with 10% heat inactivated serum and […] 2-mercaptoethanol and supplemented with glutamine/penicillin/streptomycin). Compounds were added as 100 μL of 10× working stock solutions in medium with 1% DMSO (or medium with 1% DMSO for controls) and placed in a 37° C. incubator for 2 hours. Stimulation was carried out using CD3/CD28 Dynabeads to activate the T cell receptor and mimic antigen presenting cells. Beads were added for 100 sec at a ratio of 1 bead per cell, in 100 μL medium (or medium alone for unstimulated control). Starting at 70 sec, cells and beads were pelleted in a microfuge for 15 sec, the supernatant aspirated, and 50 μL lysis buffer was added per tube and mixed with the pellet at the 100 sec time point. Tubes were placed on a rotator for 30 min at 4° C., and cell debris was pelleted in a microfuge. Supernatant was mixed 1:1 with 2× Sample Buffer and subjected to SDS-polyacrylamide gel electrophoresis. After transfer to nitrocellulose, immunoblotting was done with anti-phospho-[…] PLCγ1 antibody. Immunoblots were visualized with ECL using horseradish peroxidase conjugated secondary antibody.

Cc1cc(-c2c[nH]c3ncc(-c4cncc(NC(=O)/C=C/CN(C)C)c4)cc23)ccn1 [Example 42, (E)-4-(dimethyl-amino)-N-(5-(3-(2-methylpyridin-4-yl)-1H-pyrrolo-[2,3-b]pyridin-5-yl)pyridin-3-yl)-but-2-enamide]
IC50 (ITK): ≤ 100 nM | IC50 ([1]; Homo sapiens, Jurkat, 2 h): ≤ 1000 nM

C=CC(=O)Nc1cccc(-c2cnc3[nH]cc(-c4cccc(C#N)c4)c3c2C)c1 [Example 43, N-(3-(3-(3-cyano-phenyl)-4-methyl-1H-pyrrolo[2,3-b]pyridin-5-yl)-phenyl)acrylamide]
IC50 (ITK): ≤ 100 nM | IC50 ([1]; Homo sapiens, Jurkat, 2 h): ≤ 1000 nM

C=CC(=O)Nc1cccc(-c2cnc3[nH]cc(-c4ccnc(C#N)c4)c3c2C)c1 [Example 44, N-(3-(3-(2-cyano-pyridin-4-yl)-4-methyl-1H-pyrrolo[2,3-b]-pyridin-5-yl)-phenyl)acrylamide]
IC50 (ITK): ≤ 100 nM | IC50 ([1]; Homo sapiens, Jurkat, 2 h): ≤ 1000 nM

CN(C)C/C=C/C(=O)Nc1cncc(-c2cnc3[nH]cc(-c4ccnc(F)c4)c3c2)c1 [Example 45, (E)-4-(dimethyl-amino)-N-(5-(3-(2-fluoropyridin-4-yl)-1H-pyrrolo-[2,3-b]pyridin-5-yl)pyridin-3-yl)-but-2-enamide]
IC50 (ITK): ≤ 100 nM | IC50 ([1]; Homo sapiens, Jurkat, 2 h): ≤ 1000 nM

CNc1nccc(-c2c[nH]c3ncc(-c4cc(NC(=O)/C=C/CN(C)C)cc(OC)c4)cc23)n1 [Example 46, (E)-4-(dimethyl-amino)-N-(3-methoxy-5-(3-(2-(methylamino)-pyrimidin-4-yl)-1H-pyrrolo[2,3-b]-pyridin-5-yl)-phenyl)but-2-enamide]
IC50 (ITK): ≤ 100 nM | IC50 ([1]; Homo sapiens, Jurkat, 2 h): 1000 to 5000 nM

C=CC(=O)Nc1cc(OC(F)(F)F)cc(-c2cnc3[nH]cc(-c4cccc(C#N)c4)c3c2)c1 [Example 47, N-(3-(3-(3-cyano-phenyl)-1H-pyrrolo[2,3-b]-pyridin-5-yl)-5-(trifluoromethoxy)-phenyl)acrylamide]
IC50 (ITK): ≤ 100 nM | IC50 ([1]; Homo sapiens, Jurkat, 2 h): 1000 to 5000 nM

Cc1cc(-c2c[nH]c3ncc(-c4cccc(NC(=O)/C=C/CN(C)C)c4)cc23)ccn1 [Example 48, (E)-4-(dimethyl-amino)-N-(3-(3-(2-methylpyridin-4-yl)-1H-pyrrolo-[2,3-b]pyridin-5-yl)phenyl)but-2-enamide]
IC50 (ITK): ≤ 100 nM | IC50 ([1]; Homo sapiens, Jurkat, 2 h): ≤ 1000 nM

CN(C)C/C=C/C(=O)Nc1cc(-c2cnc3[nH]cc(-c4ccncn4)c3c2)cc(C(F)(F)F)c1 [Example 49, (E)-4-(dimethyl-amino)-N-(3-(3-(pyrimidin-4-yl)-1H-pyrrolo[2,3-b]pyridin-5-yl)-5-(trifluoro-methyl)phenyl)-but-2-enamide]
IC50 (ITK): ≤ 100 nM | IC50 ([1]; Homo sapiens, Jurkat, 2 h): ≤ 1000 nM

C=CC(=O)Nc1cncc(-c2cnc3[nH]cc(-c4ccncn4)c3c2)c1 [Example 50, N-(5-(3-(pyrimidin-4-yl)-1H-pyrrolo-[2,3-b]pyridin-5-yl)pyridin-3-yl)acrylamide]
IC50 (ITK): ≤ 100 nM | IC50 ([1]; Homo sapiens, Jurkat, 2 h): ≤ 1000 nM

C=CC(=O)Nc1cc(OC)cc(-c2cnc3[nH]cc(-c4ccnc(C#N)c4)c3c2)c1 [Example 51, N-(3-(3-(2-cyano-pyridin-4-yl)-1H-pyrrolo[2,3-b]-pyridin-5-yl)-5-methoxyphenyl)-acrylamide]
IC50 (ITK): ≤ 100 nM | IC50 ([1]; Homo sapiens, Jurkat, 2 h): > 5000 nM

COc1cc(NC(=O)/C=C/CN(C)C)cc(-c2cnc3[nH]cc(-c4ccncn4)c3c2)c1 [Example 52, (E)-4-(dimethyl-amino)-N-(3-methoxy-5-(3-(pyrimidin-4-yl)-1H-pyrrolo-[2,3-b]pyridin-5-yl)phenyl)but-2-enamide]
IC50 (ITK): ≤ 100 nM | IC50 ([1]; Homo sapiens, Jurkat, 2 h): 1000 to 5000 nM

COc1cc(NC(=O)/C=C/CN(C)C)cc(-c2cnc3[nH]cc(-c4ccncc4)c3c2)c1 [Example 53, (E)-4-(dimethyl-amino)-N-(3-methoxy-5-(3-(pyridin-4-yl)-1H-pyrrolo[2,3-b]pyridin-5-yl)phenyl)but-2-enamide]
IC50 (ITK): ≤ 100 nM | IC50 ([1]; Homo sapiens, Jurkat, 2 h): ≤ 1000 nM

CN(C)C/C=C/C(=O)Nc1cc(-c2cnc3[nH]cc(-c4ccnc5[nH]ccc45)c3c2)cc(C(F)(F)F)c1 [Example 54, (E)-N-(3-(1H,1′H-[3,4′-bipyrrolo-[2,3-b]pyridin]-5-yl)-5-(trifluoro-methyl)phenyl)-4-(dimethylamino)-but-2-enamide]
IC50 (ITK): ≤ 1000 nM | IC50 ([1]; Homo sapiens, Jurkat, 2 h): 1000 to 5000 nM

CN(C)C/C=C/C(=O)Nc1cc(-c2cnc3[nH]cc(-c4ccnc5c4ccn5C)c3c2)cc(C(F)(F)F)c1 [Example 55, (E)-4-(dimethyl-amino)-N-(3-(1′-methyl-1H,1′H-[3,4′-bipyrrolo[2,3-b]pyridin]-5-yl)-5-(trifluoro-methyl)phenyl)-but-2-enamide]
IC50 (ITK): ≤ 100 nM | IC50 ([1]; Homo sapiens, Jurkat, 2 h): ≤ 1000 nM

COc1cc(-c2c[nH]c3ncc(-c4cc(NC(=O)/C=C/CN(C)C)cc(C(F)(F)F)c4)cc23)ccn1 [Example 56, (E)-4-(dimethyl-amino)-N-(3-(3-(2-methoxy-pyridin-4-yl)-1H-pyrrolo[2,3-b]-pyridin-5-yl)-5-(trifluoromethyl)-phenyl)but-2-enamide]
IC50 (ITK): ≤ 100 nM | IC50 ([1]; Homo sapiens, Jurkat, 2 h): ≤ 1000 nM

CN(C)C/C=C/C(=O)Nc1cncc(-c2cnc3[nH]cc(-c4ccncn4)c3c2)c1 [Example 57, (E)-4-(dimethyl-amino)-N-(5-(3-(pyrimidin-4-yl)-1H-pyrrolo[2,3-b]pyridin-5-yl)-pyridin-3-yl)but-2-enamide]
IC50 (ITK): ≤ 100 nM | IC50 ([1]; Homo sapiens, Jurkat, 2 h): > 5000 nM

C=CC(=O)Nc1cc(-c2cnc3[nH]cc(-c4cccc(Cl)c4)c3c2)cc(C(F)(F)F)c1 [Example 58, N-(3-(3-(3-chloro-phenyl)-1H-pyrrolo[2,3-b]-pyridin-5-yl)-5-(trifluoro-methyl)phenyl)-acrylamide]
IC50 (ITK): ≤ 1000 nM | IC50 ([1]; Homo sapiens, Jurkat, 2 h): > 5000 nM

C=CC(=O)Nc1cc(-c2cnc3[nH]cc(-c4cccc(C)c4)c3c2)cc(C(F)(F)F)c1 [Example 59, N-(3-(3-(m-tolyl)-1H-pyrrolo[2,3-b]-pyridin-5-yl)-5-(trifluoromethyl)-phenyl)acrylamide]
IC50 (ITK): ≤ 1000 nM | IC50 ([1]; Homo sapiens, Jurkat, 2 h): > 5000 nM

CN(C)C/C=C/C(=O)Nc1cncc(-c2cnc3[nH]cc(-c4ccnc(C#N)c4)c3c2)c1 [Example 61, (E)-N-(5-(3-(2-cyanopyridin-4-yl)-1H-pyrrolo-[2,3-b]pyridin-5-yl)pyridin-3-yl)-4-(dimethyl-amino)but-2-enamide]
IC50 (ITK): ≤ 100 nM | IC50 ([1]; Human Jurkat T cells): 1000 to 5000 nM

C=CC(=O)Nc1cncc(-c2cnc3[nH]cc(-c4cccc(C(F)(F)F)c4)c3c2)c1 [Example 62, N-(5-(3-(3-(trifluoromethyl)-phenyl)-1H-pyrrolo[2,3-b]-pyridin-5-yl)-pyridin-3-yl)-acrylamide]
IC50 (ITK): ≤ 1000 nM | IC50 ([1]; Homo sapiens, Jurkat, 2 h): > 5000 nM

C=CC(=O)Nc1cc(-c2cnc3[nH]cc(-c4cccc(F)c4)c3c2)cc(C(F)(F)F)c1 [Example 63, N-(3-(3-(3-fluoro-phenyl)-1H-pyrrolo[2,3-b]-pyridin-5-yl)-5-(trifluoro-methyl)phenyl)-acrylamide]
IC50 (ITK): ≤ 1000 nM | IC50 ([1]; Homo sapiens, Jurkat, 2 h): 1000 to 5000 nM

COc1cc(-c2cnc3[nH]cc(-c4cccc(C#N)c4)c3c2)cc(N(C)C(=O)/C=C/CN(C)C)c1 [Example 64]
IC50 (ITK): ≤ 100 nM | IC50 ([1]; Homo sapiens, Jurkat, 2 h): ≤ 1000 nM
